Experiments:
[1] = Kinematic viscosity of aqueous solutions of non-aqueous solvents (25° C.); type: physicochemical
Text: The “kinematic viscosity” herein is a value obtained by dividing viscosity of a liquid by its density and means a value measured using an Ubbelohde viscometer in accordance with Japanese Pharmacopoeia viscosity measuring method. In the invention, according to Japanese Pharmacopoeia, centistokes in CGS system is used as a unit.
These water-soluble acid amides may be used singly or as a mixture of two or more of them. Furthermore, within a range imparting no serious influence on viscosity, in addition to these, water-soluble non-aqueous solvents shown in JP-A-11-193233, for example, those described in the following Table 1 may be used as auxiliary solubilizing means.

[2] = as described in JP-B-63-65047; cited from earlier work

Kinematic viscosity of aqueous solution ([1]; concentration 5% (W/V))	Kinematic viscosity of aqueous solution ([1]; concentration 10% (W/V))	Kinematic viscosity of aqueous solution ([1]; concentration 15% (W/V))	Kinematic viscosity of aqueous solution ([1]; concentration 20% (W/V))	Kinematic viscosity of aqueous solution ([1]; concentration 37% (W/V))	Structure (SMILES)	water-solubility [2]
1.067 Centistokes	1.247 Centistokes	1.455 Centistokes	1.729 Centistokes	3.048 Centistokes	CC(O)CO (centres unmarked) [Propylene glycol]	–
1.082 Centistokes	1.300 Centistokes	1.577 Centistokes	1.857 Centistokes	2.479 Centistokes	CCO [Ethanol]	–
–	–	–	–	–	NC(N)=Nc1nc(CSCCC(N)=NS(N)(=O)=O)cs1 [Famotidine]	≤ 0.1 w/v %

Source: patent publication US7094414B2, “Famotidine injections” (Astellas Pharma Inc., priority 2000, dated 2006)
